Consider one molecule from publication PMC8500670, “A selective WDR5 degrader inhibits acute myeloid leukemia in patient-derived mouse models” (Science translational medicine, 2021).

Structures are written as SMILES. Where two headings read alike, the source gives them in different places.

What all share (experiment): biochemical
Holding throughout (design): protein methyltransferase selectivity panel, enzyme activity relative to DMSO controls, single concentration in duplicate

The target in one assay is T1, G9a (Homo sapiens, UniProt Q96KQ7).
T1 construct: gene EHMT2
T1 sequence (Q96KQ7 1-1210): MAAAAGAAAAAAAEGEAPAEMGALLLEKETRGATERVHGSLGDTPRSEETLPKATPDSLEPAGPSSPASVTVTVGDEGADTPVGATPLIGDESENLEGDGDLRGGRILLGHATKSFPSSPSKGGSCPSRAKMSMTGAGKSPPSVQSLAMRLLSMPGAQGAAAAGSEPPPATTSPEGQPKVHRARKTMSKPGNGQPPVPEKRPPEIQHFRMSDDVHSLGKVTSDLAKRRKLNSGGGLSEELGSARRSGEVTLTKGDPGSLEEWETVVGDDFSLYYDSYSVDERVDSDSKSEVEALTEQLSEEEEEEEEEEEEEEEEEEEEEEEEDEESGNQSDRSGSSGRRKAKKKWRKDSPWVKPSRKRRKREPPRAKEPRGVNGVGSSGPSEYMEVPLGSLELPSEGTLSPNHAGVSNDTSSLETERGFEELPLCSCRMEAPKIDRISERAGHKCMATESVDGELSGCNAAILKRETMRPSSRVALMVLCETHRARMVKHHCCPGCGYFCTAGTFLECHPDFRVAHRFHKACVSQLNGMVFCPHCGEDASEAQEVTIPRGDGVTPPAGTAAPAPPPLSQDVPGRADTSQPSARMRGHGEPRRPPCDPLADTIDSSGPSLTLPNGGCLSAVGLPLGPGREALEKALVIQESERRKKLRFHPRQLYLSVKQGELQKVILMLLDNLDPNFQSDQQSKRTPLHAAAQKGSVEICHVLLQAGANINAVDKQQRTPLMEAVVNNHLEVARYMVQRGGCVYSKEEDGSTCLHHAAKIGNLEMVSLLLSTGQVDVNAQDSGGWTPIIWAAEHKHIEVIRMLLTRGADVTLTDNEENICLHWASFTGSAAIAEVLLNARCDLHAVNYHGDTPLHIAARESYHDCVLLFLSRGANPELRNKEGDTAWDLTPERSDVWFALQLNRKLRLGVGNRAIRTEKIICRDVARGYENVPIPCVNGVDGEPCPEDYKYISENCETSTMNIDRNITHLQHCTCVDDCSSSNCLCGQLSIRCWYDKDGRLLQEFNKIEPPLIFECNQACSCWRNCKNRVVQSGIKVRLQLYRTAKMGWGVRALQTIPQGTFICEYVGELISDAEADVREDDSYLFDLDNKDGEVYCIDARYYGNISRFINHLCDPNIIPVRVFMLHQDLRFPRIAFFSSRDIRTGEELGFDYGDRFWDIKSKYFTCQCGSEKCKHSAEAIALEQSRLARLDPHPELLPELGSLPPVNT
The note with it: Substrate:=Histone H3 1-21. On the procedure: (§1) We next assessed selectivity of MS67 against 22 protein methyltransferases (table S2) and a broad panel of common drug targets including 45 kinases (table S3) and 44 G protein–coupled receptors (GPCR), ion channels, and transporters (table S4). […] We subsequently determined that MS67 had moderate binding affinity (Ki = 1.0 ± 0.8 μM) to Sigma 2 receptor (fig. S10).

A further assay deals with SETD2 (Homo sapiens, UniProt Q9BYW2). The following applies: Substrate:=Nucleosomes. How it is done: as §1
Sequence of SETD2 (Q9BYW2 whole entry): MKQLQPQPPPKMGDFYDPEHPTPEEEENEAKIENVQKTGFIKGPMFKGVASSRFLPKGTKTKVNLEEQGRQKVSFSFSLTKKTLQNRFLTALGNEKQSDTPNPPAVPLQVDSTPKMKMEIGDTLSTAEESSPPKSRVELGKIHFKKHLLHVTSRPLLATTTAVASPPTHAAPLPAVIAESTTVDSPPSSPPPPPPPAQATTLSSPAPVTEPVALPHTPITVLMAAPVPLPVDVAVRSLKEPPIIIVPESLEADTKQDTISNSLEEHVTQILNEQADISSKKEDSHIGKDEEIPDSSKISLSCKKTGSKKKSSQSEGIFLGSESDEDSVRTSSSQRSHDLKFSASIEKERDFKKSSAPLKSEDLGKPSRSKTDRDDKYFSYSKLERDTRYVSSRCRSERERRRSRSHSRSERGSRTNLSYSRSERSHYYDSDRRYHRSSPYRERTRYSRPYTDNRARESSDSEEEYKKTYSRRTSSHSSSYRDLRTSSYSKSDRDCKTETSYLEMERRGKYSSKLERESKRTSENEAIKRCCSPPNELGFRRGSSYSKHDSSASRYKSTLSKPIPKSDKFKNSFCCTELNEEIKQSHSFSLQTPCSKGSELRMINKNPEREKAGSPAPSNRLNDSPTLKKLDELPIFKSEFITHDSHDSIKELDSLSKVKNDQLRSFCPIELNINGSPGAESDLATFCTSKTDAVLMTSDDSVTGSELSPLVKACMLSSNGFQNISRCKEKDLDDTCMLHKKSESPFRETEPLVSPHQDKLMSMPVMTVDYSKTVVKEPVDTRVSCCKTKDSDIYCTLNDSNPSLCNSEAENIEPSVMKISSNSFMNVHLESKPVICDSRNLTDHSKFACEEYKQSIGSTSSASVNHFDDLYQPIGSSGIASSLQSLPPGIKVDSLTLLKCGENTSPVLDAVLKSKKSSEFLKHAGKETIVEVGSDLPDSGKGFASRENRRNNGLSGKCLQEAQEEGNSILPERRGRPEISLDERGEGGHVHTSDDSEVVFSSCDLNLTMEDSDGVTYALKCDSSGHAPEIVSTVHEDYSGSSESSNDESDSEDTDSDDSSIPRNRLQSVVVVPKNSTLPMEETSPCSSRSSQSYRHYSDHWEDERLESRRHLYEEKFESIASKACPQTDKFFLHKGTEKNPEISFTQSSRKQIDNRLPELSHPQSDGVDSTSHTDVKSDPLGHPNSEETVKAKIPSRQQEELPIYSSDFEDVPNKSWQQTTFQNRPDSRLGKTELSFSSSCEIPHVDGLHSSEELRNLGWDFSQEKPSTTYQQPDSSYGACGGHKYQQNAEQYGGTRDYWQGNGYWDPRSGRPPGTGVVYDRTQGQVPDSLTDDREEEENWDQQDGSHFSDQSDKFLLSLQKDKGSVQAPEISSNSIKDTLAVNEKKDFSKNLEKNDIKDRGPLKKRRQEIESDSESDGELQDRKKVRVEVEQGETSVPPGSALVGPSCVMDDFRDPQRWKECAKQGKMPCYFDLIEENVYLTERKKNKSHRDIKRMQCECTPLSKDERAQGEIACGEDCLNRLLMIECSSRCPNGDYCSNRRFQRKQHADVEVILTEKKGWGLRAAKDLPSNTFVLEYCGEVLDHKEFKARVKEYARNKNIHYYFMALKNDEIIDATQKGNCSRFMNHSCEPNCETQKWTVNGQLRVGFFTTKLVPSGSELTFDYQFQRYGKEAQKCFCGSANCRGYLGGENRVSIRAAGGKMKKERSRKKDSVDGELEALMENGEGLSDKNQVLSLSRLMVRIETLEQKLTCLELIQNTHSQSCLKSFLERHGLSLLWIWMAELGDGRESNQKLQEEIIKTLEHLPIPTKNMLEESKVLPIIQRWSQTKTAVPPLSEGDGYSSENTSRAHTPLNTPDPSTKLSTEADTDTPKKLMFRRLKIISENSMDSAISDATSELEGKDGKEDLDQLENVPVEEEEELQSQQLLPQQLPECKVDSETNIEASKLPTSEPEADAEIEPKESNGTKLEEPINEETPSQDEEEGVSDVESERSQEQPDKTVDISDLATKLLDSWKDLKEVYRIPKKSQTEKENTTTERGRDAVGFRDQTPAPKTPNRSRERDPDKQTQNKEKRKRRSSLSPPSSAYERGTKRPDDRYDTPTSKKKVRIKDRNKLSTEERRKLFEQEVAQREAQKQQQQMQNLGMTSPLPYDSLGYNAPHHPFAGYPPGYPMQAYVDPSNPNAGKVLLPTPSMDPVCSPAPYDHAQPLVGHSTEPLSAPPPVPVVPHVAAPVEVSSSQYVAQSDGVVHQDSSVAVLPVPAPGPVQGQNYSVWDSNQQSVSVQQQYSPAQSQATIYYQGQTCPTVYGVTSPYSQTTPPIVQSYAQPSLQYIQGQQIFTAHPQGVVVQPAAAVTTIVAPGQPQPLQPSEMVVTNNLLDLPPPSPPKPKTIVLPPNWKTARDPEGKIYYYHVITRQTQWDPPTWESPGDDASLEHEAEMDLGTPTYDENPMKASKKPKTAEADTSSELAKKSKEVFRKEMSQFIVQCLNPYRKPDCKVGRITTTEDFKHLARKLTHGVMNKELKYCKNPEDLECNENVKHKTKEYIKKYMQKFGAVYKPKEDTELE
Another assay concerns the target T2, SMYD3 (Homo sapiens, UniProt Q9H7B4).
T2 sequence (Q9H7B4 1-428): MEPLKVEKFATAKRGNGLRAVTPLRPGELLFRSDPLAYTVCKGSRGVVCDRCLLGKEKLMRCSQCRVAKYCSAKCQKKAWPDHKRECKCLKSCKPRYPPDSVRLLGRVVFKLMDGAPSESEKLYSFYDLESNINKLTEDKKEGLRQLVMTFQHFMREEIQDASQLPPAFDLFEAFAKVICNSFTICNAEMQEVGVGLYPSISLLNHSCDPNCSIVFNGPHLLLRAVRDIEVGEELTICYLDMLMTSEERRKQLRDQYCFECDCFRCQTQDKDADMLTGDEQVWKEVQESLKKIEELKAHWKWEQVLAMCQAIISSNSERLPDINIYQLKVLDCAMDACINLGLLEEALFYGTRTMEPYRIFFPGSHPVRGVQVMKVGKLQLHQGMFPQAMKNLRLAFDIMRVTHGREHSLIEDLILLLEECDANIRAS
The following applies: Substrate:=MEKK2. On the procedure: as §1

The target in a further assay is T3, SET7/9 (Homo sapiens, UniProt Q8WTS6).
T3 construct: gene SETD7
T3 sequence (Q8WTS6 1-366): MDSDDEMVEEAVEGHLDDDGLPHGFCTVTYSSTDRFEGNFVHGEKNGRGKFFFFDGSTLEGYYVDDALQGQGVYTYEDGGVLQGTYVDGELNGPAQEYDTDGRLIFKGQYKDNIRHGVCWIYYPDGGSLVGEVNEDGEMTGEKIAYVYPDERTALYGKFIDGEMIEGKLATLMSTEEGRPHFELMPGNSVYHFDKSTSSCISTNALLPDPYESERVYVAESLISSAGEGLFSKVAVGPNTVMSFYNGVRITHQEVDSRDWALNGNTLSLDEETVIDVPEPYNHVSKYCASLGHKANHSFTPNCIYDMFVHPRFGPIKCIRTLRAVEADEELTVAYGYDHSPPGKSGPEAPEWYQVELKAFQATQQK
The following applies: Substrate:=Core Histone. How it is done:
as §1

For the next assay, the target named is PRMT6 (Homo sapiens, UniProt Q96LA8). The note with it: Substrate:=GST-GAR. How it is done:
as §1

Where [1] appears, read: read-out: Enzyme % Activity (relative to DMSO controls) / MS67 / 10 / Data 1:
[2] abbreviates: read-out: Enzyme % Activity (relative to DMSO controls) / MS67 / 10 / Data 2:

Sequence of PRMT6 (Q96LA8 whole entry): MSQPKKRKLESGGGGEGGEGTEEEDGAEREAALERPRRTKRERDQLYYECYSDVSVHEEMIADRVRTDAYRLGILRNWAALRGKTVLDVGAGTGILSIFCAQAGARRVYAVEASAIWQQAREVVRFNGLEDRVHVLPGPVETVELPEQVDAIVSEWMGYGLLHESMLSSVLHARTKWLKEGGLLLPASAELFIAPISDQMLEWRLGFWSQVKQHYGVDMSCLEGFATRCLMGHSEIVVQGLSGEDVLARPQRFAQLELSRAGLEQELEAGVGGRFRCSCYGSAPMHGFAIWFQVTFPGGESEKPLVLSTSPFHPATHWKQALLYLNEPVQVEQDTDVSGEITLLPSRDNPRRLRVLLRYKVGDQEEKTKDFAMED

For the molecule `Cc1ncsc1-c1ccc([C@H](C)NC(=O)[C@@H]2C[C@@H](O)CN2C(=O)[C@@H](NC(=O)CNC(=O)c2ccc(F)c(-c3ccc(N4C[C@@H](C)N(C)[C@@H](C)C4)c(NC(=O)c4c[nH]c(=O)cc4C(F)(F)F)c3)c2)C(C)(C)C)cc1` [MS67], the remaining activity at 10 µM at G9a (setting [1]) was determined as 93%; at G9a (setting [2]), 90.9%; on SETD2 (setting [1]), 112%; on SETD2 (setting [2]), 110%; at SMYD3 (setting [1]), 103%; on SMYD3 (setting [2]), 116%. For the same molecule, the remaining activity at 10 µM at SET7/9 (setting [1]) worked out at 99.7%; at SET7/9 (setting [2]), 92%; on PRMT6 (setting [1]), 97.1%; at PRMT6 (setting [2]) it was 95.1%.
